According to PMC8815882, “Screening the pandemic response box identified benzimidazole carbamates, Olorofim and ravuconazole as promising drug candidates for the treatment of eumycetoma” (PLoS Neglected Tropical Diseases, 2022):
Read-outs that look alike come from different tables or passages of the source.

Tested on: M. mycetomatis genome strain MM55
Experiment: CLSI M38-A2 based in vitro susceptibility screening (XTT or resazurin), growth at fixed concentration
Assay type: cell-based, Madurella mycetomatis
Details: Madurella mycetomatis; for Percent fungal survival at 100 µM: read-out: Percentage survival at 100um, 100 uM A (second replicate column)
[1] = mean of three replicates, read-out: Percentage survival at 25um, 25 uM mean
[2] = replicate A, read-out: Percentage survival at 25um, 25 um A
[3] = replicate B, read-out: Percentage survival at 25um, 25 uM B
[4] = replicate C, read-out: Percentage survival at 25um, 25 uM C
[5] = first replicate column, read-out: Percentage survival at 100um, 100 uM A
[6] = mean of three replicates, read-out: Percentage survival at 100um, 100 uM mean
[7] = second replicate column, read-out: Percentage survival at 100um, 100 uM A
[8] = third replicate column, read-out: Percentage survival at 100um, 100 uM A
[9] = mean of replicates, read-out: Percentage survival at 25um, 25 uM mean
[10] = mean of replicates, read-out: Percentage survival at 100um, 100 uM mean
[11] = replicate 1, read-out: Percentage survival at 100um, 100 uM A
[12] = replicate 2, read-out: Percentage survival at 100um, 100 uM A
[13] = replicate 3, read-out: Percentage survival at 100um, 100 uM A
[14] = mean of three, M. mycetomatis MM55, read-out: Percentage survival at 25um, 25 uM mean
[15] = replicate A, M. mycetomatis MM55, read-out: Percentage survival at 25um, 25 um A
[16] = replicate B, M. mycetomatis MM55, read-out: Percentage survival at 25um, 25 uM B
[17] = replicate C, M. mycetomatis MM55, read-out: Percentage survival at 25um, 25 uM C
[18] = mean of three, M. mycetomatis MM55, read-out: Percentage survival at 100um, 100 uM mean
[19] = replicate 1, M. mycetomatis MM55, read-out: Percentage survival at 100um, 100 uM A (first replicate column)
[20] = replicate 2, M. mycetomatis MM55
[21] = replicate 3, M. mycetomatis MM55, read-out: Percentage survival at 100um, 100 uM A (third replicate column)
[22] = mean of replicates, MM55, read-out: Percentage survival at 25um, 25 uM mean
[23] = replicate A, MM55, read-out: Percentage survival at 25um, 25 um A
[24] = replicate B, MM55, read-out: Percentage survival at 25um, 25 uM B
[25] = replicate C, MM55, read-out: Percentage survival at 25um, 25 uM C
[26] = mean of replicates, MM55, read-out: Percentage survival at 100um, 100 uM mean
[27] = replicate 1, MM55, read-out: Percentage survival at 100um, 100 uM A
[28] = replicate 2, MM55, read-out: Percentage survival at 100um, 100 uM A
[29] = replicate 3, MM55, read-out: Percentage survival at 100um, 100 uM A
[30] = replicate 1, read-out: Percentage survival at 100um, 100 uM A (first replicate column)
[31] = replicate 3, read-out: Percentage survival at 100um, 100 uM A (third replicate column)
[32] = mean, read-out: Percentage survival at 25um, 25 uM mean
[33] = mean, read-out: Percentage survival at 100um, 100 uM mean
[34] = replicate (first column), read-out: Percentage survival at 100um, 100 uM A
[35] = replicate (second column), read-out: Percentage survival at 100um, 100 uM A
[36] = replicate (third column), read-out: Percentage survival at 100um, 100 uM A

Cc1nc2ccc(Cl)cc2c(-c2ccccc2)c1CC(=O)O [MMV1580801]
activity at 25 µM [1]: 86.1%
activity at 25 µM [2]: 87.4%
activity at 25 µM [3]: 94.3%
activity at 25 µM [4]: 76.7%
activity at 100 µM [5]: 85.8%
activity at 100 µM [6]: 83.4%
activity at 100 µM [7]: 76.8%
activity at 100 µM [8]: 87.5%

COc1cc(Cc2cc(N)nc(N)n2)cc(OC)c1OC [MMV1579846]
activity at 25 µM [9]: 80.9%
activity at 25 µM [2]: 87.9%
activity at 25 µM [3]: 75.2%
activity at 25 µM [4]: 79.5%
activity at 100 µM [10]: 95.4%
activity at 100 µM [11]: 83.5%
activity at 100 µM [12]: 94.2%
activity at 100 µM [13]: 108%

COc1ccc(NC(=O)CC2Sc3ncnn3C2=O)cc1 (centres unmarked) [MMV1483032]
activity at 25 µM [14]: 78.4%
activity at 25 µM [15]: 82.6%
activity at 25 µM [16]: 81.9%
activity at 25 µM [17]: 70.7%
activity at 100 µM [18]: 36%
activity at 100 µM [19]: -1.84%
Percent fungal survival at 100 µM [20]: 1.55%
activity at 100 µM [21]: 108%

COc1ccc(C)cc1NC(=O)c1ccc(S(=O)(=O)N2CCCCC2)cc1 [MMV1578579]
activity at 25 µM [14]: 72.2%
activity at 25 µM [15]: 96.4%
activity at 25 µM [16]: 63%
activity at 25 µM [17]: 57.3%
activity at 100 µM [18]: 71.4%
activity at 100 µM [19]: 69.7%
Percent fungal survival at 100 µM [20]: 77.1%
activity at 100 µM [21]: 67.5%

COCCn1cnc2c(=O)[nH]c(Nc3ccccc3)nc21 [MMV1782103]
activity at 25 µM [22]: 86.8%
activity at 25 µM [23]: 90%
activity at 25 µM [24]: 97.7%
activity at 25 µM [25]: 72.6%
activity at 100 µM [26]: 75.1%
activity at 100 µM [27]: 87.4%
activity at 100 µM [28]: 60.4%
activity at 100 µM [29]: 77.5%

Cn1c2ccccc2c(=O)c2c(O)cccc21 [MMV1580500]
activity at 25 µM [22]: 65%
activity at 25 µM [23]: 63.1%
activity at 25 µM [24]: 67.8%
activity at 25 µM [25]: 64.2%
activity at 100 µM [26]: 58.6%
activity at 100 µM [27]: 66.8%
activity at 100 µM [28]: 57.2%
activity at 100 µM [29]: 51.8%

CC1(C)Cc2c(C#N)c(SCCc3ccccc3)nc(N3CCOCC3)c2CO1 [MMV1549626]
activity at 25 µM [14]: 62.3%
activity at 25 µM [15]: 67.7%
activity at 25 µM [16]: 59.1%
activity at 25 µM [17]: 60.3%
activity at 100 µM [18]: 87.3%
activity at 100 µM [19]: 92.1%
Percent fungal survival at 100 µM [20]: 105%
activity at 100 µM [21]: 65.1%

C[C@H]1CC[C@@]2(O)C(C)(C)[C@@H]3CC[C@@]2(C)[C@H]1C3 [MMV1578556]
activity at 25 µM [14]: 75.9%
activity at 25 µM [15]: 69.5%
activity at 25 µM [16]: 83.8%
activity at 25 µM [17]: 74.3%
activity at 100 µM [18]: 84.9%
activity at 100 µM [19]: 79.8%
Percent fungal survival at 100 µM [20]: 92.6%
activity at 100 µM [21]: 82.4%

CCNC(=O)Nc1cn2c(-c3ncc(CC)cn3)cc(-c3cccnc3)cc2n1 [MMV1782403]
activity at 25 µM [1]: 109%
activity at 25 µM [2]: 109%
activity at 25 µM [3]: 132%
activity at 25 µM [4]: 85.2%
activity at 100 µM [6]: 84.3%
activity at 100 µM [30]: 77.2%
Percent fungal survival at 100 µM (replicate 2): 79.4%
activity at 100 µM [31]: 96.3%

CCC(CC)[C@H](NC(C)=O)[C@@H]1[C@H](O)[C@@H](C(=O)O)C[C@H]1NC(=N)N [MMV1593511]
activity at 25 µM [1]: 92.7%
activity at 25 µM [2]: 97.1%
activity at 25 µM [3]: 98.3%
activity at 25 µM [4]: 82.7%
activity at 100 µM [6]: 89.1%
activity at 100 µM [30]: 95.6%
Percent fungal survival at 100 µM (replicate 2): 83.3%
activity at 100 µM [31]: 88.3%

CC(C)c1cc2c(cc1S(=O)(=O)O)[C@@]1(C)CCC[C@@](C)(C(=O)O)[C@@H]1CC2 [MMV1633675]
activity at 25 µM [1]: 79.3%
activity at 25 µM [2]: 73.4%
activity at 25 µM [3]: 82.6%
activity at 25 µM [4]: 81.8%
activity at 100 µM [6]: 82.2%
activity at 100 µM [30]: 91.1%
Percent fungal survival at 100 µM (replicate 2): 74%
activity at 100 µM [31]: 81.5%

NC(=O)c1ccc(I)c([N+](=O)[O-])c1 [MMV1581035]
activity at 25 µM [1]: 97.6%
activity at 25 µM [2]: 97.2%
activity at 25 µM [3]: 103%
activity at 25 µM [4]: 92.5%
activity at 100 µM [5]: 89.6%
activity at 100 µM [6]: 90.1%
activity at 100 µM [7]: 93.1%
activity at 100 µM [8]: 87.5%

Cc1cc(C2CCCCC2)n(O)c(=O)c1 [MMV002731]
activity at 25 µM [32]: 32%
activity at 25 µM [2]: -3.44%
activity at 25 µM [3]: 96.3%
activity at 25 µM [4]: 3.22%
activity at 100 µM [33]: 5.09%
activity at 100 µM [34]: -2.39%
activity at 100 µM [35]: 6.16%
activity at 100 µM [36]: 11.5%

CC1(C)CC(NC(=O)C(=O)Nc2ccc(Cl)cc2)CC(C)(C)N1 [MMV1580501]
activity at 25 µM [22]: 79.5%
activity at 25 µM [23]: 75.9%
activity at 25 µM [24]: 89.4%
activity at 25 µM [25]: 73.3%
activity at 100 µM [26]: 74.7%
activity at 100 µM [27]: 76.9%
activity at 100 µM [28]: 78.1%
activity at 100 µM [29]: 69%

COc1ccc(CNC(=O)C2CCN([C@H](C)c3cccc4ccccc34)CC2)cc1 [MMV1634397]
activity at 25 µM [22]: 45.7%
activity at 25 µM [23]: 62.4%
activity at 25 µM [24]: 66.9%
activity at 25 µM [25]: 7.76%
activity at 100 µM [26]: 4.13%
activity at 100 µM [27]: 3.82%
activity at 100 µM [28]: -0.868%
activity at 100 µM [29]: 9.43%

Fc1ccc(-c2nc(-c3c[nH]c4ccc(Br)cc34)[nH]c2-c2ccc(F)cc2)cc1 [MMV1593537]
activity at 25 µM [14]: 61.4%
activity at 25 µM [15]: 38%
activity at 25 µM [16]: 20.2%
activity at 25 µM [17]: 126%
activity at 100 µM [18]: 3.84%
activity at 100 µM [19]: 4.18%
Percent fungal survival at 100 µM [20]: 1.82%
activity at 100 µM [21]: 5.52%

CCCNc1ccc(S(=O)(=O)Nc2cc(C)on2)cc1 [MMV1782216]
activity at 25 µM [32]: 75.9%
activity at 25 µM [2]: 81.9%
activity at 25 µM [3]: 68.5%
activity at 25 µM [4]: 77.2%
activity at 100 µM [33]: 87.1%
activity at 100 µM [34]: 83.4%
activity at 100 µM [35]: 74.1%
activity at 100 µM [36]: 104%

O=C(NCc1ccc(F)cc1)c1c(O)c2ncccc2[nH]c1=O [MMV1782097]
activity at 25 µM [22]: 95.5%
activity at 25 µM [23]: 97.7%
activity at 25 µM [24]: 100%
activity at 25 µM [25]: 88.2%
activity at 100 µM [26]: 82.8%
activity at 100 µM [27]: 86.6%
activity at 100 µM [28]: 79.1%
activity at 100 µM [29]: 82.7%

OB1OCc2cc(Cl)ccc21 [MMV1634363]
activity at 25 µM [32]: 33.1%
activity at 25 µM [2]: 51.2%
activity at 25 µM [3]: -4.3%
activity at 25 µM [4]: 52.5%
activity at 100 µM [33]: 61.8%
activity at 100 µM [34]: 40.7%
activity at 100 µM [35]: 85.6%
activity at 100 µM [36]: 59.1%

CC(C)Oc1cccc(NC(=O)c2ccccc2C(F)(F)F)c1 [MMV1009286]
activity at 25 µM [32]: 61%
activity at 25 µM [2]: 87.9%
activity at 25 µM [3]: 37.1%
activity at 25 µM [4]: 58%
activity at 100 µM [33]: 39%
activity at 100 µM [34]: 26.3%
activity at 100 µM [35]: 52.4%
activity at 100 µM [36]: 38.1%

O=C(NN1C(=O)[C@@H]2C3C=CC([C@H]4C[C@@H]34)[C@@H]2C1=O)c1ccc(C(F)(F)F)cc1 [MMV1782114]
activity at 25 µM [1]: 90.1%
activity at 25 µM [2]: 95.2%
activity at 25 µM [3]: 94.5%
activity at 25 µM [4]: 80.6%
activity at 100 µM [6]: 84.5%
activity at 100 µM [30]: 90%
Percent fungal survival at 100 µM (replicate 2): 78.4%
activity at 100 µM [31]: 85%

CC(C)n1cnc2c(NCc3ccccc3)nc(NCc3ccccc3)nc21 [MMV1579780]
activity at 25 µM [9]: 62.7%
activity at 25 µM [2]: 64.2%
activity at 25 µM [3]: 61.7%
activity at 25 µM [4]: 62%
activity at 100 µM [10]: 61%
activity at 100 µM [11]: 60.4%
activity at 100 µM [12]: 63.1%
activity at 100 µM [13]: 59.6%
